Results taken from patent US6426366B1, “Pharmaceutical compositions comprising tyrphostins” (priority 1996, dated 2002).
Entries after “also recorded” stand apart in the source; their conditions may differ. Where two headings read alike, the source gives them in different places.

Key:
[1] = tested on: A9 mouse fibroblastic cells; assay: TNF-α-induced apoptosis and Go/G1 arrest (FACS, propidium iodide); type: cell-based
Description: In order to test the effect of tyrphostins on the TNF-α-induced apoptosis of the cells, A9 mouse fibroblastic cells were incubated for two hours with cycloheximide (50 μg/ml) after which the various tyrphostins were added at a final concentration of 20 μM except AG1801 that was added at the final concentration of 5 μM. Following one hour incubation with the tyrphostins, TNF-α was added to the cells at a concentration of 0.2 ng/ml and the cells were incubated for an additional ten hours.

[2] = tested on: CD1 female mice; assay: 5 FU myelotoxicity (bone marrow nucleated cells); type: in vivo; details: 5 FU 80 mg/kg i.p. alone; five days (FIG. 15)
Description: CD1 female mice were divided into the following groups:
A control group receiving a single i.p. injection of the vehicle only (co-solvent: propylene carbonate-cremophor-saline);
Mice receiving a single i.p. injection of 5-fluorouracil (5 FU) at a dose of 80 mg/kg;
Five days after the administration of 5 FU to the mice, the mice were sacrificed and the number of nucleated cells in the bone marrow of one femur, were counted. Each group of mice consisted of two or three mice and the results shown are the mean number of cells counted±SD.

[3] = tested on: CD1 mice; assay: Cisplatin nephrotoxicity: serum creatinine and BUN; type: in vivo; details: tyrphostin 10 mg/kg i.p. 2 h before cisplatin 14 mg/kg i.p.; four days (FIG. 5)
Excerpt: Mice in the control croup received injections of the vehicle only (a stock solution of ethanol: chemaphore (50:50) diluted with saline). […] Each group consisted of three mice and the results are shown as mean levels of the measured parameter±SD.

[4] = tested on: CD1 mice
Excerpt: Each experimental group consisted of three mice and the results shown are the mean number of cells in a group±SD.

[5] = tested on: CD1 mice; assay: Histopathological analysis of kidneys and small intestines after cisplatin; type: in vivo
Description: Histopathological analysis of the kidneys and small intestines of the non-treated and treated mice was performed using slices from formaline fixed tissues stained with hematoxylin eosin.

[6] = tested on: B-16 melanoma
Description: Mice were injected i.v. with 2×10^5 B-16 melanoma cells and 4 days after tumor inoculation each mouse received a single i.p. injection of doxorubicin (4 mg/kg or 8 mg/kg).

[7] = tested on: human ovary carcinoma (OVCAR-3) cells; assay: OVCAR-3 human ovary carcinoma tumor volume in athymic mice; type: in vivo; details: agent by itself: cisplatin 4 mg/kg or AG1714 20 mg/kg; twenty days (FIG. 23)
Description: Athymic mice were inoculated subcutaneously (s.c.) with human ovary carcinoma (OVCAR-3) cells (3×10^6 cells/site). […] Twenty days post tumor inoculation the short (S) and long (L) diameters of the tumor were measured and the tumor volume (V) was calculated according to the formula:
Each group contained 5 mice and the results are expressed as the means±SE.

[8] = tested on: SK-28 human melanoma; assay: SK-28 human melanoma tumor xenografts in nude mice; type: in vivo
Description: CD1 athymic mice (nu/nu) were inoculated i.v. with 4×10^5/mouse SK-28 human melanoma. Doxorubicin (4 mg/kg) was injected i.p. 4 days after tumor inoculation.

[9] = tested on: MCA-105 fibrosarcoma; assay: MCA-105 fibrosarcoma lung metastases in mice; type: in vivo; details: for weight of the lungs of tumor bearing mice: single agent: AG1801 5 mg/kg, cisplatin 10 mg/kg or doxorubicin 10 mg/kg, 4 days after inoculation (FIG. 25)
Description: (§1) 2×10^5/mouse MCA-105 fibrosarcoma cells or Lewis Lung carcinoma cells and 5×10^4/mouse B-16 melanoma cells were injected into the tail vein of C57BL mice.
(§2) Twenty-four days after tumor inoculation, mice were sacrificed, lungs weighed and the number of metastases were scored. Each group contained 5 mice and the results are expressed as the means lungs' weights±SE.
C57BL mice were divided into the following groups:
Mice injected i.v. at the age of 6 weeks with 2×10^5 fibrosarcoma MCA105 cells and 4 days' later, receiving an injection comprising the vehicle only;
Mice injected i.v. at the age of 6 weeks with 2×10^5 fibrosarcoma MCA105 cells and 4 days' later, injected with 10 mg/kg of doxorubicin;

[10] = tested on: CD1 mice; assay: Reduction of cisplatin-caused mouse mortality; type: in vivo; details: cisplatin 14 mg/kg alone
Excerpt: (§3) 6 weeks old female CD1 mice were divided into the following groups:

[11] = tested on: Lewis Lung carcinoma cells; assay: Lewis lung carcinoma lung metastases in mice; type: in vivo; details: agent by itself: cisplatin 4 mg/kg or AG1714 20 mg/kg (FIG. 21B)
Description: as §1, §2

[12] = tested on: A-9 cells; assay: TNF-induced cytotoxicity in vitro; type: cell-based, mouse; details: AG (20 μM)
Description: Following one hour incubation with the tyrphostins, TNF-α was added to the cells at a concentration of 0.2 ng/ml and the cells were incubated for an additional ten hours. At the end of ten hours, the cell cultures were analyzed by FACS using propidium iodide and the extent of apoptosis in each of the cell cultures (seen as DNA fragmentation) was determined (see Novogrodsky, A., et al., Science, 264:1319-1322, 1994).
The effect of tyrphostins on TNF-induced cytotoxicity was determined in vitro using A-9 cells as described in Example 39 above.

[13] = tested on: CD1 mice; assay: LPS-induced lethal toxicity in vivo; details: tyrphostin 20 mg/kg i.p. two hours prior to E. coli LPS […] i.p.
Description: In addition, the effect of tyrphostin on TNF mediated cytotoxicity in vivo was determined in mice injected with LPS (which induces TNF toxicity in vivo). E. coli LPS the concentration of 1.3 mg/mouse was injected i.p. to CD1 mice. While control mice were injected in addition with the vehicle only, the remaining mice were injected with the various tyrphostins (20 mg/kg) i.p. two hours prior to LPS injection.

[14] = tested on: CD1 mice; assay: Doxorubicin induced myelotoxicity (femur bone marrow nucleated cells, CFU); details: doxorubicin 10 mg/kg i.p. alone; 3 days (FIG. 12B)
Description: CD1 mice were divided into the following groups:
Mice receiving an i.p. injection of doxorubicin (10 mg/kg) alone;
Mice receiving one injection of the vehicle and two hours later an i.p. injection of doxorubicin (10 mg kg,).
3 days later, the number of bone marrow nucleated cells and colony forming units (CFU) in the femurs of the treated mice was determined (Nikerich, D. A., et al., J. Immunopharmacol., 8:299-313, 1986). Each group contained 3 mice and the results are expressed as a means±SD.
The number of femur nucleated bone marrow cells in the treated mice was determined three days (FIG. 13A) and at various times (FIG. 13B) post doxorubicini administration.
CD1 mice were divided into five groups:
Mice receiving the vehicle alone;
Mice receiving doxorubicin (10 mg/kg) alone;
Three days after doxorubicin administration, the mice were sacrificed and the number of nucleated cells in bone marrow was determined as described above.

[15] = tested on: CD1 mice; assay: Reduction of doxorubicin-caused mouse mortality; type: in vivo
Description: as §3
i. Mice injected intraperitoneally (i.p.) with doxorubicin (20 mg/kg);
CD1 mice were divided into the following five groups:
i. Mice receiving, a single i.p. injection of 20 mg/kg of doxorubicin;
iii. Mice receiving a single i.p. injection of 20 mg/kg of AG1782 and two hours later an i.p. injection of 20 mg/kg of doxorubicin;
iv. Mice receiving a single i.p. injection of 20 mg/kg of AG126 and two hours later an i.p. injection of 20 mg/kg of doxorubicin.
The % mortality in each of the above groups was determined by scoring the number of dead mice every day until 10 days after injection.

[16] = tested on: primary rat cardiomyocytes cultures; assay: Doxorubicin-induced cardiotoxicity in vitro (cellular beating); type: cell-based; details: doxorubicin 10 μM alone; 24 hours
Description: The cardiomyocyte cultures were divided into the following, four groups receiving:
Cells receiving doxorubicin at a concentration of 10 μM; and
The rate of beats-of clusters of cardiomyocytes (“mini-hearts”) was determined 24 hours after beginning of incubation.

[17] = tested on: CD1 mice; assay: Doxorubicin lymphotoxicity (weight of spleen and thymus); type: in vivo; details: doxorubicin 10 mg/kg i.p. alone; 72 hours
Description: 72 hours after doxorubicin administration the mice were sacrificed and the weight of the spleen and thymus of the mice was determined as parameters of lymphotoxicity. Each experimental group consisted of three mice and the results are mean no. of cells±SD. As control, the mice received an injection of the vehicle only instead of doxorubicin.

[18] = Cyclophosphamide (50 mg/kg) alone (−), 72 hours
[19] = Table 5A, Doxorubicin (4 mg/kg) alone
[20] = Table 5A, Doxorubicin (8 mg/kg) alone
[21] = Table 5B, Doxorubicin (4 mg/kg) alone
[22] = Table 5B, Doxorubicin (8 mg/kg) alone
[23] = Table 6A, Doxorubicin (8 mg/kg) alone

Q: Which “Cell cycle % G1” value ([1]; TNF-α (0.2 ng/ml) alone) does the source give for TNF-α here?
A: 85.8%

Q: What about the “Cell cycle % G2 + M” value ([1]; TNF-α (0.2 ng/ml) alone) of the same compound?
A: 6.6%

Q: And the “Cell cycle % S” value ([1]; TNF-α (0.2 ng/ml) alone)?
A: 7.6%

Q: And the Apoptosis (%) ([1]; Table 9, TNF-α (0.2 ng/ml) alone)?
A: 28.7%

Q: Which “number of nucleated cells in the bone marrow” value [2] does the source give for O=c1[nH]cc(F)c(=O)[nH]1 [5 FU, 5-fluorouracil] here?
A: decrease in the number of nucleated cells

Q: N#CC(=Cc1ccc([N+](=O)[O-])cc1)C(N)=S [AG1744] was tested. Which “nephrotoxicity of cisplatin (serum creatinine level)” value [3] did it give?
A: markedly reduced the nephrotoxicity of cisplatin

Q: For O=P1(N(CCCl)CCCl)NCCCO1 (stereo not drawn) [Cyclophosphamide, cyclophosphamide], which “Nucleated cells in bone marrow (× 10^6)” value [4, 18] is on record?
A: 6.2 × 10^6

Q: What about the “Spleen” value [4, 18] of the same compound?
A: 52 mg

Q: What about the “Thymus” value [4, 18] of the same compound?
A: 39 mg

Q: What about the “number of nucleated cells in the bone marrow, spleen and thymus” value ([4]; cyclophosphamide 50 mg/kg alone) of the same compound?
A: significant reduction in the number of nucleated cells

Q: For N.N.[Cl][Pt][Cl] [Cisplatin, cisplatin], which histopathology of kidneys ([5]; cisplatin 14 mg/kg alone (FIG. 7B)) is on record?
A: large proteinaceous plaques in the proximal tubals; also recorded: large proteinaceous plaques in the proximal tubules

Q: And the “histopathology of small intestine” value ([5]; cisplatin 14 mg/kg alone (FIG. 7E))?
A: severe necrosis and disintegration of the columnar intestinal epithelial cells; also recorded: severe necrosis and damage

Q: And the “anti-tumor effect (lungs' weight, established lung metastases)” value ([6]; agent alone: Cisplatin (4 mg/kg) or AG1714 (20 mg/kg) (FIG. 21C))?
A: not effective

Q: And the “anti-tumor effect (tumor volume)” value [7]?
A: marked anti-tumor effect

Q: What about the “weight of the lungs of tumor bearing mice” value ([8]; single agent: cisplatin or AG1801 (FIG. 26)) of the same compound?
A: reduced the weight of the lungs of the tumor bearing mice to an extent

Q: And the “anti-tumor effect (lungs' weight, established lung metastases)” value ([9]; agent by itself: cisplatin 4 mg/kg or AG1714 20 mg/kg i.p., 24 days (FIG. 21A))?
A: markedly inhibited the growth

Q: What about the “weight of the lungs of tumor bearing mice” value [9] of the same compound?
A: reduced the weight of the mice's lungs to a weight similar to that of control non tumor bearing mice

Q: And the mortality [10]?
A: all the mice in the group receiving cisplatin alone died within ten days

Q: What about the “anti-tumor effect (lungs' weight, established lung metastases)” value [11] of the same compound?
A: partial anti-tumor effect

Q: What does the source list for N#CC(C#N)=Cc1ccc([N+](=O)[O-])c(O)c1 [AG126]?
A: live cells, % of control ([12]; TNF 0.05 ng/ml): 75 % of control; live cells, % of control ([12]; TNF 0.2 ng/ml): 49 % of control; live cells, % of control ([12]; TNF 1.0 ng/ml): 33 % of control; live cells, % of control ([12]; TNF None): 107 % of control; Apoptosis (%) ([1]; TNF-α (0.2 ng/ml) +, ten hours, cycloheximide 50 μg/ml, tyrphostins 20 μM, except AG1801 5 μM): 19.4%; Apoptosis (%) ([1]; TNF-α −, cycloheximide 50 μg/ml, tyrphostins 20 μM, except AG1801 5 μM): 8.3%; % alive mice [13]: 80%; alive/total [13]: 4/5

Q: Which “Mortality (dead/total)” value [6, 19] does the source give for COc1cccc2c1C(=O)c1c(O)c3c(c(O)c1C2=O)C[C@@](O)(C(=O)CO)C[C@@H]3O[C@H]1C[C@H](N)[C@H](O)[C@H](C)O1 [Doxorubicin, doxorubicin] here?
A: 0/4

Q: What about the “No. of lungs' metastases (+ SD)” value [6, 19] of the same compound?
A: 7 ± 4

Q: And the “Mortality (dead/total)” value [6, 20]?
A: 3/4

Q: And the “Mortality, percent in brackets” value [6, 20]?
A: 75%

Q: What about the “No. of lungs' metastases (+ SD)” value [6, 20] of the same compound?
A: 1

Q: What about the “Lungs' weight (mg + SEM)” value [6, 21] of the same compound?
A: 306 ± 12 mg

Q: And the “Mortality (dead/total)” value [6, 21]?
A: 0/6

Q: And the “Mortality (dead/total)” value [6, 22]?
A: 7/8

Q: And the “Mortality, percent in brackets” value [6, 22]?
A: 88%

Q: And the “growth of the SK-28 tumor (lungs' weight, metastases)” value ([8]; agent by itself: doxorubicin 4 mg/kg or AG1714 20 mg/kg, 24 days (FIG. 22))?
A: markedly suppressed the growth

Q: And the “reduction in CFU” value [14]?
A: 55%

Q: And the “Mortality (dead/total)” value ([9]; Table 6A, Doxorubicin (4 mg/kg) alone)?
A: 0/5

Q: And the “Lungs' weight (mg + SEM)” value [9, 23]?
A: 170 ± 4 mg

Q: What about the “Mortality (dead/total)” value [9, 23] of the same compound?
A: 5/8

Q: And the “Mortality, percent in brackets” value [9, 23]?
A: 62.5%

Q: And the “weight of the lungs of tumor bearing mice” value [9]?
A: reduced the weight of the mice's lungs to a weight similar to that of control non tumor bearing mice

Q: What about the “mortality of the mice” value ([15]; 10 i.p. doxorubicin injections 5 mg/kg over 21 days, alone) of the same compound?
A: high mortality

Q: And the “% mortality” value ([15]; doxorubicin 20 mg/kg i.p. alone, within a week after injection)?
A: 90%

Q: What about the “Cellular beating (beats/min)” value [16] of the same compound?
A: 15 ± 1.3 beats/min

Q: And the “number of beats per minute relative to control cultures” value [16]?
A: about 20%

Q: What about the “weight of spleens and thymuses” value [17] of the same compound?
A: significant reduction in the weight of spleens
